Experimental data taken from patent US10604514B2, “6-(5-membered heteroaryl)isoquinolin-3-yl carboxamides and preparation and use thereof” (Samumed, LLC, priority 2017, dated 2020).
Like-named read-outs stand apart in the source and are kept apart here.

Assays:
[1] = tested on: Wnt activity (Sp5-Luc reporter in SW480 colon carcinoma cells); assay: Wnt activity screening assay (Sp5-Luc reporter gene assay); format: cell-based, human; conditions: Homo sapiens; for EC50: Sp5-Luc reporter, SW480 cells, 36 to 48 hours
Source text: The screening assay for Wnt activity is described as follows. Reporter cell lines can be generated by stably transducing cancer cell lines (e.g., colon cancer) or primary cells (e.g., IEC-6 intestinal cells) with a lentiviral construct that includes a Wnt-responsive promoter driving expression of the firefly luciferase gene.
SW480 colon carcinoma cells were transduced with a lentiviral vector expressing luciferase with a human Sp5 promoter consisting of a sequence of eight TCF/LEF binding sites. SW480 cells stably expressing the Sp5-Luc reporter gene and a hygromycin resistance gene were selected by treatment with 150 μg/mL of hygromycin for 7 days. These stably transduced SW480 cells were expanded in cell culture and used for all further screening activities. Each compound was dissolved in DMSO as a 10 mM stock and used to prepare compound source plates. Serial dilution (1:3, 10-point dose-response curves starting from 10 μM) and compound transfer was performed using the ECHO 550 (Labcyte, Sunnyvale, Calif.) into 384-well white solid bottom assay plates (Greiner Bio-One) with appropriate DMSO backfill for a final DMSO concentration of 0.1%. For Sp5-Luc reporter gene assays, the cells were plated at 4,000 cells/well in 384-well plates with a DMEM medium containing 1% fetal bovine serum, and 1% Penicillin-Streptomycin and incubated for 36 to 48 hours at 37° C. and 5% CO2. Following incubation, 15 μl of BriteLite Plus luminescence reagent (Perkin Elmer) was added to each well of the 384-well assay plates. The plates were placed on an orbital shaker for 2 min and then luminescence was quantified using the Envision (Perkin Elmer) plate reader. Readings were normalized to DMSO only treated cells, and normalized activities were utilized for EC50 calculations using the dose-response log (inhibitor) vs. response -variable slope (four parameters) nonlinear regression feature available in GraphPad Prism 5.0 (or Dotmatics).

[2] = target: GSK3β kinase (Homo sapiens (Human), UniProt P49841); assay: GSK3β kinase assay (Ser/Thr 09 peptide Z-lyte, FRET); format: biochemical; conditions: method text calls the value IC50;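 note: Coumarin/fluorescein emission ratio converted to percent phosphorylation against unphosphorylated (0%) and phosphorylated (100%) controls, 1 h compound incubation at room temperature, 11-point threefold dilutions from 10 µM, run in duplicate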
[3] = tested on: Tau phosphorylation at Ser396 (pSer396), SH-SY5Y cells; assay: Tau phosphorylation at Ser396 (pSer396) in SH-SY5Y cells, ELISA/western blot; format: cell-based, human; conditions: Homo sapiens; SH-SY5Y cells, overnight (16-18 h); read-out: pSer396 Tau EC50;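 note: cell lysates probed for reduced Tau pSer396 via ELISA (colorimetric) or western blot (chemiluminescence), both with one shared pSer396 antibody, EC50 for lowering phosphorylation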
[4] = tested on: SW480 colon carcinoma cells; assay: Cell viability assay (CellTiter-Glo) in SW480 cells; format: cell-based, human; conditions: Homo sapiens; for EC50: 96 h, cell viability, SW480 cells, four days, CellTiter-Glo; for inhibition at 10 µM: SW480, read-out: percent inhibition at 10 μM;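 for all read-outs here: SW480 cells stably carrying an Sp5-luciferase TCF/LEF reporter, luminescent ATP signal as viability measure, DMSO-treated cells as control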
[5] = tested on: LL29 cells (primary human fibroblasts derived from IPF patients), α-smooth muscle actin; assay: Inhibition of fibrotic process: αSMA in TGF-β1-treated primary human fibroblasts from IPF patients (LL29 cells); format: cell-based; conditions: Homo sapiens, Fibroblast; for EC50: 96 h, % αSMA-positive LL29 cells, TGF-β1 20 ng/mL, 4 days; for inhibition at 10 µM: read-out: percent inhibition at 10 μM
Source text: Representative compounds were screened using primary human fibroblasts (derived from IPF patients) treated with TGF-β1 to determine their ability to inhibit the fibrotic process.
Primary human fibroblasts derived from IPF patients (LL29 cells) [^1Xiaoqiu Liu, et. al., “Fibrotic Lung Fibroblasts Show Blunted Inhibition by cAMP Due to Deficient cAMP Response Element-Binding Protein Phosphorylation”, Journal of Pharmacology and Experimental Therapeutics (2005), 315(2), 678-687; ^2Watts, K. L., et. al., “RhoA signaling modulates cyclin D1 expression in human lung fibroblasts; implications for idiopathic pulmonary fibrosis”, Respiratory Research (2006), 7(1), 88] were obtained from American Type Culture Collection (ATCC) and expanded in F12 medium supplemented with 15% Fetal Bovine Serum and 1% Penicillin/Streptomycin.
Each compound was dissolved in DMSO as a 10 mM stock and used to prepare compound source plates. Serial dilution (1:2, 11-point dose-response curves from […] to 0.94 nM) and compound transfer was performed using the ECHO 550 (Labcyte, Sunnyvale, Calif.) into 384-well clear bottom assay plates (Greiner Bio-One) with appropriate DMSO backfill for a final DMSO concentration of 0.1%. LL29 cells were plated at 1,500 cells/well in 70 μL/well F12 medium supplemented with 1% Fetal Bovine Serum. TGF-β1 (Peprotech; 20 ng/mL) was added to the plates to induce fibrosis (ref. 1 and 2 above). Wells treated with TGF-31 and containing DMSO were used as positive control, and cells with only DMSO were negative control. Cells were incubated at 37° C. and 5% CO2 for 4 days. Following incubation for 4 days, SYTOX green nucleic acid stain (Life Technologies [Thermo Fisher Scientific]) was added to the wells at a final concentration of 1 μM and incubated at room temperature for 30 min. Cells were then fixed using 4% formaldehyde (Electron Microscopy Sciences), washed 3 times with PBS followed by blocking and permeabilization using 3% Bovine Serum Albumin (BSA; Sigma) and 0.3% Triton X-100 (Sigma) in PBS. Cells were then stained with antibody specific to α-smooth muscle actin (αSMA; Abcam) (ref. 1 and 2 above) in 3% Bovine Serum Albumin (BSA; Sigma) and 0.3% Triton X-100 (Sigma) in PBS, and incubated overnight at 4° C. Cells were then washed 3 times with PBS, followed by incubation with Alexa Flor-647 conjugated secondary antibody (Life Technologies [Thermo Fisher Scientific]) and DAPI in 3% Bovine Serum Albumin (BSA; Sigma) and 0.3% Triton X-100 (Sigma) in PBS at room temperature for 1 hour. Cells were then washed 3 times with PBS and plates were sealed for imaging. αSMA staining was imaged by excitation at 630 nm and emission at 665 nm and quantified using the Compartmental Analysis program on the CellInsight CX5 (Thermo Scientific). Dead or apoptotic cells were excluded from analysis based on positive SYTOX green staining. % of total cells positive for αSMA were counted in each well and normalized to the average of 11 wells treated with TGF-β1 on the same plate using Dotmatics' Studies Software.

[6] = tested on: IL-6; assay: IL-6 inhibition in LPS-stimulated human peripheral blood mononuclear cells (HTRF); format: cell-based; conditions: Homo sapiens, PBMC; for EC50: IL-6, LPS-stimulated huPBMCs, HTRF; for inhibition at 10 µM: read-out: percent value in parentheses below EC50 >10
Method: Fresh Normal PB MNC (Catalog # PB001, AllCells, Alameda, Calif.) were shipped overnight at 4° C. and resuspended in Roswell Park Memorial Institute (RPMI) 1640 Medium, with GlutaMAX Supplement (Catalog #61870127, ThermoFisher Scientific, Waltham, Mass.) supplemented with 1% Penicillin-Streptomycin (Catalog #151401633 ThermoFisher Scientific, Waltham, Mass.) and 1% fetal bovine serum (FBS) (Catalog #16140089, ThermoFisher Scientific, Waltham, Mass.) assay media.
Fresh normal human peripheral blood mononuclear cells (huPBMCs) were resuspended in 1% FBS-RPMI assay media with 1% Penicillin-Streptomycin 1% to a cell concentration of 1×10e6 cells/mL. Each compound was dissolved in DMSO (Catalog # D8418-100 ml, Sigma-Aldrich, St. Louis, Mo.) as a 10 mM stock and used to prepare compound source plates. Serial dilution (1:3, 10-point dose-response curves starting from 10 μM) and compound transfer was performed using the ECHO 550 (Labcyte, Sunnyvale, Calif.) into 384-well white Proxiplate-Plus assay plates (Catalog #6008289, PerkinElmer, Shelton, Conn.) with appropriate DMSO backfill for a final DMSO concentration of 0.25%. huPBMCs were plated at 5000 cells/well in the 384-well Proxiplate-Plus assay plates and incubated at 37° C.-5% CO2 for 2 hours. 50 ng/mL of Lipopolysaccharides from Escherichia coli 0111:B4 (Catalog # L5293-2 ML, Sigma-Aldrich, St. Louis, Mo.) was added after 2 hours and cells were incubated for another 22 hours at 37° C.-5% CO2. After 22 hour incubation, a mixture of anti-IL6 XL665 and anti-IL-6 Cryptate diluted in reconstitution buffer (Catalog #62IL6PEC, Cisbio Inc., Bedford, Mass.) was added to each well. Following incubation for 3 hours at room temperature, Homogeneous Time-Resolved Fluorescence (HTRF) was measured using the Envision (Perkin Elmer, Shelton, Conn.) at 665 nm and […]. The ratio of fluorescence at 665 nm to 620 nm was used as a readout for IL-6 quantification. All samples were processed in duplicate. Readings were normalized to DMSO treated cells and normalized activities were utilized for EC50 calculations. EC50 was determined using software generated by Dotmatics Limited (Windhill Bishops Stortford Herts, UK) using the Levenberg-Marquardt 4 parameter fitting procedure with finite different gradients.

[7] = target: DYRK1A kinase (Homo sapiens (Human), UniProt Q13627); assay: DYRK1A kinase assay (Ser/Thr 18 peptide Z-lyte, FRET)
Method: This is a non-radioactive assay using fluorescence resonance energy transfer (FRET) between coumarin and fluorescein to detect kinase activity which is represented as a ratio of coumarin emission/fluorescein emission.
The mixture was allowed to incubate with the representative compounds for one hour at room temperature. All reactions were performed in duplicate. Unphosphorylated (“0% Control”) and phosphorylated (“100% control”) forms of Ser/Thr 18 served as control reactions. Additionally, an 11-point dose-response curve of Staurosporine (1 uM top) was run to serve as a positive compound control.
After incubation, Development Reagent A was diluted in Development Buffer then added to the reaction and allowed to further incubate for one hour at room temperature.
The percent phosphorylation was then calculated using the following formula: [1−((Em ratio×F100%)−C100%)/((C0%−C100%)+(Em ratio×(F100%−F0%)))]. Dose-response curves were generated and inhibitory concentration (IC50) values were calculated using non-linear regression curve fit in the Dotmatics' Studies Software (Bishops Stortford, UK).

[8] = DYRK1A kinase, method text calls the value IC50

Sequence of GSK3β kinase (P49841 whole entry): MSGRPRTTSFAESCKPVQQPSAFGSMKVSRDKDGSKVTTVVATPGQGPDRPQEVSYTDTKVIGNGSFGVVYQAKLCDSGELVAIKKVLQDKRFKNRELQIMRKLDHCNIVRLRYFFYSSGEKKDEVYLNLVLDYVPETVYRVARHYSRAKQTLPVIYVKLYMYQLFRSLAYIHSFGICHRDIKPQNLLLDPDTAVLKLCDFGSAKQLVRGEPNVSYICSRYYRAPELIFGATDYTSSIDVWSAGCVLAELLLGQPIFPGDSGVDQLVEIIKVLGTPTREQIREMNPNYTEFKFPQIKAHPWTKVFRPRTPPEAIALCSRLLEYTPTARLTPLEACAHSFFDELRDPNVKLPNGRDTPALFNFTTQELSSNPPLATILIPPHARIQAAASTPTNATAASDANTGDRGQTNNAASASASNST

EC50 [1]	EC50 [2]	EC50 [3]	EC50 [4]	EC50 [6]	EC50 [7, 8]	EC50 [7]	Structure (SMILES)	EC50 [5]	inhibition at 10 µM [4]	inhibition at 10 µM [5]	inhibition at 10 µM [6]	inhibition at 10 µM ([1]; SW480, read-out: percent inhibition at 10 μM)
0.73 µM	0.022 µM	0.069 µM	0.907 µM	0.489 µM	0.004 µM		CC(C)CN1CCC(CC(=O)Nc2cc3cc(-c4cnn(C)c4)ccc3cn2)C1 (stereo not shown) [Compound 4, 2-(1-Isobutylpyrrolidin-3-yl)-N-(6-(1-methyl-1H-pyrazol-4-yl)isoquinolin-3-yl)acetamide]	0.229 µM				
0.917 µM	0.115 µM	0.511 µM	0.738 µM	1.05 µM		0.003 µM	[2H]c1c(NC(=O)C2CCNCC2)ncc2ccc(-c3cnn(C)c3)cc12 [Compound 5, N-(6-(1-Methyl-1H-pyrazol-4-yl)isoquinolin-3-yl-4-d)piperidine-4-carboxamide]	0.113 µM				
0.923 µM	0.018 µM	0.119 µM	0.719 µM	9.22 µM	0.004 µM		Cn1cc(-c2cc(F)c3cnc(NC(=O)[C@H]4CC[C@H](N(C)C)CC4)cc3c2)nn1 [Compound 10, trans-4-(Dimethylamino)-N-(8-fluoro-6-(1-methyl-1H-1,2,3-triazol-4-yl)isoquinolin-3-yl)cyclohexane-1-carboxamide]	0.208 µM				
2.81 µM	0.01 µM	0.19 µM	> 10 µM	> 10 µM	0.01 µM		Cn1cc(-c2ccc3cnc(NC(=O)CN4CCOCC4)cc3c2)nn1 [Compound 11, N-(6-(1-Methyl-1H-1,2,3-triazol-4-yl)isoquinolin-3-yl)-2-morpholinoacetamide]	> 10 µM	46.3%	3.8%	38.4%	
0.943 µM	0.189 µM	0.436 µM	0.713 µM	1.12 µM	0.016 µM		Cc1nc(-c2ccc3cnc(NC(=O)[C@H]4CC[C@H](N5CCN(C)CC5)CC4)cc3c2)co1 [Compound 12, trans-N-(6-(2-Methyloxazol-4-yl)isoquinolin-3-yl)-4-(4-methylpiperazin-1-yl)cyclohexane-1-carboxamide]	0.102 µM				
3.7 µM	1.25 µM	4.7 µM	3.51 µM	> 10 µM	0.013 µM		Cc1ncc(-c2ccc3cnc(NC(=O)N4CCOCC4)cc3c2)n1C [Compound 13, N-(6-(1,2-Dimethyl-1H-imidazol-5-yl)isoquinolin-3-yl)morpholine-4-carboxamide]	> 10 µM		38.2%	17.6%	
5.35 µM	0.048 µM	0.382 µM	5.55 µM	> 10 µM	0.033 µM		Cn1cnnc1-c1ccc2cnc(NC(=O)CN3CCOCC3)cc2c1 [Compound 14, N-(6-(4-Methyl-4H-1,2,4-triazol-3-yl)isoquinolin-3-yl)-2-morpholinoacetamide]	1.38 µM			12.5%	
> 10 µM	0.059 µM	0.981 µM	> 10 µM	> 10 µM	0.061 µM		Cc1nnc(-c2ccc3cnc(NC(=O)CN4CCOCC4)cc3c2)n1C [Compound 15, N-(6-(4,5-Dimethyl-4H-1,2,4-triazol-3-yl)isoquinolin-3-yl)-2-morpholinoacetamide]	0.896 µM	38%		15.8%	40.1%
1.46 µM	0.122 µM	0.286 µM	0.808 µM	1.03 µM	0.005 µM		CN[C@H]1CC[C@H](C(=O)Nc2cc3cc(-c4cnc(C)o4)ccc3cn2)CC1 [Compound 16, trans-4-(Methylamino)-N-(6-(2-methyloxazol-5-yl)isoquinolin-3-yl) cyclohexane-1-carboxamide]	0.172 µM				
4.1 µM	0.188 µM	0.743 µM	6.91 µM	3.44 µM	0.018 µM		Cc1ncc(-c2cc(F)c3cnc(NC(=O)[C@H]4CC[C@H](N(C)C)CC4)cc3c2)o1 [Compound 17, trans-4-(Dimethylamino)-N-(8-fluoro-6-(2-methyloxazol-5-yl)isoquinolin-3-yl)cyclohexane-1-carboxamide]	1.43 µM				
